Test system: βc in human eosinophils
Experiment: Tyrosine phosphorylation of βc in human eosinophils stimulated with IL-5 (immunoblot)
Assay type: cell-based
Conditions: FIG. 2
Description: Eosinophils were isolated from human whole blood or granulocyte leukapheresis packs obtained from Pharmacia and Upjohn Clinical Research Unit--Kalamazoo, Mich. Only blood from donors who had >5% peripheral blood eosinophils was used, while leukapheresis donors usually had 3-5% eosinophils. One unit of whole blood was divided among 50-ml polypropylene centrifuge tubes and centrifuged for 20 minutes at 300×g at room temperature (RT). The plasma was removed and 50 ml were centrifuged at 2500×g for 15 minutes at RT to remove platelets. The resulting platelet poor plasma (ppp) was diluted 1:4 in normal saline.
Immediately after purification, eosinophils were resuspended at 2×10^7 cells/ml in RPMI 1640 medium (GibcoBRL, Gaithersburg, Md.) supplemented with 1% fetal bovine serum (FBS, GibcoBRL, Gaithersburg,Md.) and incubated 2 min at 37°. Recombinant human IL-5 (Biosource, Camarillo, Calif.) diluted in PBS with 0.1% bovine serum albumin was added at 12.5 ng/ml for various times using 1×10^7 cells per data point. Tubes were placed on ice and 10 volumes of PBS with 0.1 mM sodium orthovanadate were added to each tube. Eosinophils were pelleted by centrifugation at 300×g and resuspended in 0.6 ml lysis buffer (20 mM Tris-Cl, pH 7.4, 100 mM NaCl, 10 mM sodium pyrophosphate, 2 mM EDTA, 50 mM NaF, 1 mM sodium orthovanadate, 3% Triton X-100) with protease inhibitors (10 μg/ml aprotinin, 10 μg/ml leupeptin, and 0.2 mM phenylmethylsulfonyl fluoride).
After incubation on ice for 15 min, debris was pelleted by centrifugation at 16,000×g. βc was immunoprecipitated from the lysate by rotating overnight at 4° with a 1:300 dilution of anti-βcantibody (Upstate Biotechnology, Lake Placid, N.Y.). Twenty microliters of protein A-Sepharose (Pharmacia Biotech, Uppsala, Sweden) were added to each lysate, and the incubation was continued one hour. […]

IL-5: Recombinant human IL-5 (Biosource)
time of peak tyrosine phosphorylation of βc (12.5 ng/ml human IL-5, 37° C.): 5 to 10 min | time to tyrosine phosphorylation of βc (12.5 ng/ml human IL-5, 37° C.): ≤ 1 min | time by which dephosphorylation was evident (12.5 ng/ml human IL-5, continued presence): ≤ 30 min

From US6187552A, “Method for identifying inhibitors of JAK2/cytokine receptor binding” (Pharmacia & Upjohn Company, priority 1998, dated 2001)
